Reference: patent publication US6627628B1, “Substituted 4-amino-2-aryl-cyclopenta[d]pyrimidines, their production and use and pharmaceutical preparations containing same” (Aventis Pharma Deutschland, GmbH, priority 1998, dated 2003)

Experiments:
[1] = target: T1, soluble guanylate cyclase (sGC) (Bos taurus, UniProt P16068+P19687); assay: Activation of soluble guanylate cyclase (cGMP enzyme immunoassay); assay type: biochemical; details: sGC isolated from bovine lung; test substance 50 μM; 5% DMSO; 37° C., 15 to 20 minutes; [cGMP]test substance/[cGMP]control (basal enzyme activity)
T1 construct: The sGC employed had been isolated from bovine lung; from tissue; host or cells: bovine lung
T1 sequence (P19687 1-691): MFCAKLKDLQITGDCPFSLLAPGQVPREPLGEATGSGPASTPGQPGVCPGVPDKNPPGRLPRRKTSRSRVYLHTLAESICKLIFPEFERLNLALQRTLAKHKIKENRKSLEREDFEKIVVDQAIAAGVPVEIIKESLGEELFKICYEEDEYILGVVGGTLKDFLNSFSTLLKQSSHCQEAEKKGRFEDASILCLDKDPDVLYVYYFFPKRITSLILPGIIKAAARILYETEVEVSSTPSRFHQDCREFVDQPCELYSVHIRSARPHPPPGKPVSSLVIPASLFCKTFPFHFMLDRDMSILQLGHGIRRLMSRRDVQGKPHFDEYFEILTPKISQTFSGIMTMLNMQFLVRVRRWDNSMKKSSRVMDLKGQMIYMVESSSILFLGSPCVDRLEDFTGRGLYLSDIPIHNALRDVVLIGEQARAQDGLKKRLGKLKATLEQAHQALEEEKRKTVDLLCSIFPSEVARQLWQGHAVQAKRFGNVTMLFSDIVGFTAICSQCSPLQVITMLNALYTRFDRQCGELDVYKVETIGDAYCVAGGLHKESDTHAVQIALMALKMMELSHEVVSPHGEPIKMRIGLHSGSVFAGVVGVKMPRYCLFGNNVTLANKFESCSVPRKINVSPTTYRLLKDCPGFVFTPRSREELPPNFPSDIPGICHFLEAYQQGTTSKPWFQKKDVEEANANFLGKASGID
T1 sequence (P16068 1-619): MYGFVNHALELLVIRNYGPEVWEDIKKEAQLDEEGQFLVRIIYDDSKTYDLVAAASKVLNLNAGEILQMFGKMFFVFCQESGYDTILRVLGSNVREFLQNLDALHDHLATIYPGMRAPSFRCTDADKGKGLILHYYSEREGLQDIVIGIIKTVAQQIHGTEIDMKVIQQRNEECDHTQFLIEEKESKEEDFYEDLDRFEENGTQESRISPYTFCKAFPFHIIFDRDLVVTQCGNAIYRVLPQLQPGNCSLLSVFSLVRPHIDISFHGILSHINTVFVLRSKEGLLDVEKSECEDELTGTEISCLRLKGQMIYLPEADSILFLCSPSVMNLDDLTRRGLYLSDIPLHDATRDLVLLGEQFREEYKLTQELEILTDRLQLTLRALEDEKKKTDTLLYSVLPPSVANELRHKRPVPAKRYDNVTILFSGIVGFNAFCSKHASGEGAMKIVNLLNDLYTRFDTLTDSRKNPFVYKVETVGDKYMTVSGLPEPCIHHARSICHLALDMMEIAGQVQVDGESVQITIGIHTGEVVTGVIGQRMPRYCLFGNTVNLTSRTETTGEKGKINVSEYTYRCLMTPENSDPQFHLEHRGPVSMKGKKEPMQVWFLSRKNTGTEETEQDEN
Description: Activation of Soluble Guanylate Cyclase
The activation of soluble guanylate cyclase (sGC), which catalyzes the conversion of guanosine triphosphate (GTP) to cyclic guanosine monophosphate (cGMP) and pyrophosphate, by the compounds according to the invention was quantified with the aid of an enzyme immunoassay (EIA) from Amersham. For this, the test substances were first incubated with sGC in microtiter plates and then the quantity of the resulting cGMP was determined.
The test solutions (100 μl per well) contained 50 mM triethanolamine (TEA) buffer (pH 7.5), 3 mM MgCl2, 3 mM reduced glutathione (GSH), 0.1 mM GTP, 1 mM 3-isobutyl-1-methylxanthine (IBMX), suitably diluted enzyme solution and the test substance or, in the control experiments, solvent. The test substances were dissolved in dimethyl sulfoxide (DMSO) and the solution was diluted with DMSO/water such that the final concentration c of test substance in the test batch was 50 μM. The DMSO concentration in the test batch was 5% (v/v). The reaction was started by addition of the sGC. The reaction mix was incubated at 37° C. for 15 to 20 minutes and then stopped by ice-cooling and addition of the stop reagent (50 mM EDTA, pH 8.0). An aliquot of 50 μl was taken and employed for the determination of the cGMP content using the acetylation protocol of the Amersham cGMP EIA kit. The absorption of the samples was measured at 450 nm (reference wavelength 620 nm) in a microtiter plate reading apparatus. The cGMP concentration was determined by means of a calibration curve, which was obtained under the same experimental conditions.
n-fold stimulation=[cGMP]test substance/[cGMP]control.

melting point [°C]	n-fold stimulation at c = 50 μM [1] [fold]	SMILES
93	5	CCCCNc1nc(-c2cc(Cl)cc(Cl)c2)nc2c1CCC2 [Example 49, 2-(3,5-Dichlorophenyl)-4-butylamino-6,7-dihydro-5H-cyclopenta[d]pyrimidine]
–	5	CCCCNc1nc(-c2cccc(Cl)c2)nc2c1CCC2 [Example 33, 2-(3-Chlorophenyl)-4-butylamino-6,7-dihydro-5H-cyclopenta[d]pyrimidine]
185	6	CCN(CC)c1nc(-c2cccc(Cl)c2)nc2c1CCC2.Cl [Example 25, 2-(3-Chlorophenyl)-4-diethylamino-6,7-dihydro-5H-cyclopenta[d]pyrimidine hydrochloride]
121	6	CCCCNc1nc(-c2ccc(Cl)cc2)nc2c1CCC2 [Example 30, 2-(4-Chlorophenyl)-4-butylamino-6,7-dihydro-5H-cyclopenta[d]pyrimidine]
129	15	Clc1cccc(-c2nc3c(c(NC4CCCC4)n2)CCC3)c1 [Example 32, 2-(3-Chlorophenyl)-4-cyclopentylamino-6,7-dihydro-5H-cyclopenta[d]pyrimidine]
–	7	Clc1ccc(-c2nc3c(c(NC4CCCC4)n2)CCC3)cc1 [Example 15, 2-(4-Chlorophenyl)-4-cyclopentylamino-6,7-dihydro-5H-cyclopenta[d]pyrimidine]
216	35	O[C@H]1CC[C@H](Nc2nc(-c3ccc(Cl)cc3)nc3c2CCC3)CC1 [Example 34, 2-(4-Chlorophenyl)-4-(trans-4-hydroxycyclohexylamino)-6,7-dihydro-5H-cyclopenta[d]pyrimidine]
185	5	CCN(CC)c1nc(-c2ccc(Cl)cc2)nc2c1CCC2.Cl [Example 26, 2-(4-Chlorophenyl)-4-diethylamino-6,7-dihydro-5H-cyclopenta[d]pyrimidine hydrochloride]
133	8	CCCCNc1nc(-c2ccc(C)cc2)nc2c1CCC2 [Example 40, 2-(4-Methylphenyl)-4-butylamino-6,7-dihydro-5H-cyclopenta[d]pyrimidine]
114	7	CCCN(CCC)c1nc(-c2ccc(Cl)cc2)nc2c1CCC2 [Example 35, 2-(4-Chlorophenyl)-4-dipropylamino-6,7-dihydro-5H-cyclopenta[d]pyrimidine]
117	7	CCCN(CCC)c1nc(-c2ccc(C)cc2)nc2c1CCC2 [Example 45, 2-(4-Methylphenyl)-4-dipropylamino-6,7-dihydro-5H-cyclopenta[d]pyrimidine]
–	34	CS(=O)(=O)O.O[C@H]1CC[C@H](Nc2nc(-c3cc(Cl)cc(Cl)c3)nc3c2CCC3)CC1 [Example 16, 2-(3,5-Dichlorophenyl)-4-(trans-4-hydroxycyclohexylamino)-6,7-dihydro-5H-cyclopenta[d]pyrimidine methanesulfonic acid salt]
142	9	OCCCCNc1nc(-c2cc(Cl)cc(Cl)c2)nc2c1CCC2 [Example 48, 2-(3,5-Dichlorophenyl)-4-(4-hydroxybutylamino)-6,7-dihydro-5H-cyclopenta[d]-pyrimidine]
153	8	Clc1cc(Cl)cc(-c2nc3c(c(NC4CCCC4)n2)CCC3)c1 [Example 50, 2-(3,5-Dichlorophenyl)-4-cyclopentylamino-6,7-dihydro-5H-cyclopenta[d]-pyrimidine]
163	10	Cc1ccc(-c2nc3c(c(NC4CCCCC4)n2)CCC3)cc1 [Example 42, 2-(4-Methylphenyl)-4-cyclohexylamino-6,7-dihydro-5H-cyclopenta[d]pyrimidine]
183	9	Cc1ccc(-c2nc3c(c(NC4CCCC4)n2)CCC3)cc1 [Example 41, 2-(4-Methylphenyl)-4-cyclopentylamino-6,7-dihydro-5H-cyclopenta[d]pyrimidine]
191	23	Cc1ccc(-c2nc3c(c(N[C@H]4CC[C@H](O)CC4)n2)CCC3)cc1 [Example 43, 2-(4-Methylphenyl)-4-(trans-4-hydroxycyclohexylamino)-6,7-dihydro-5H-cyclopenta[d]pyrimidine]
